Holding throughout (assay): biochemical
The target of test [1] is BChE (Homo sapiens, UniProt P06276). Conditions: mean ± standard error; Lineweaver-Burk; read-out: K I BChE. The procedure: (§1) First, purification of hCA I and hCA II enzymes for this study followed a modified procedure derived from prior literature sources. To evaluate the inhibitory effects, the esterase activities of hCA isoforms were assessed using the p‐nitrophenylacetate substrate, which is converted by both isoforms to the p‐nitrophenolate ion, as described in our prior studies. The assessment of ChE activities involved a modified adaptation of the Ellman's method, incorporating acetylthiocholine iodide for AChE and […] for BChE as the respective substrates.
Sequence of BChE (P06276 29-602, species assumed): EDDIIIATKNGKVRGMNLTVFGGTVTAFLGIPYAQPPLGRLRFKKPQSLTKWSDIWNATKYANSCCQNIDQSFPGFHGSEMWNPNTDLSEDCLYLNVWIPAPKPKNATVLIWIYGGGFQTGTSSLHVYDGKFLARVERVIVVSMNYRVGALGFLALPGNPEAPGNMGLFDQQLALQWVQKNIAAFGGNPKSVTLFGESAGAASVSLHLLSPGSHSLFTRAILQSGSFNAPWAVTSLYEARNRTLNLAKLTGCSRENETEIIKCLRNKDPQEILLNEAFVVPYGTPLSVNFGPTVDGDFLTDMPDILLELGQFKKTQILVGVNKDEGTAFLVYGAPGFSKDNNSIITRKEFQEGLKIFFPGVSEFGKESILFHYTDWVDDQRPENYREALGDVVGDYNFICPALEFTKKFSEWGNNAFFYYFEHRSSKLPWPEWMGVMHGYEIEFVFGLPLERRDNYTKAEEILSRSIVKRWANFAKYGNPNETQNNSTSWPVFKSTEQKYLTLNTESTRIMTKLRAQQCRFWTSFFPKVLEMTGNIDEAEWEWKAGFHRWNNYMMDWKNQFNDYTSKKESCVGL
(§2) The inhibition effects of the novel sulfonamide‐bearing pyrazolone derivatives were determined with different inhibitor concentrations (at least five) against hCA isoenzymes and ChEs. The IC 50 of the derivatives was calculated from Activity (%)–[inhibitor] graphs for derivatives. The inhibition types and K I values were found by Lineweaver and Burk's curves. The data analysis and graph generation were performed using GraphPad Prism version 8 for Mac (GraphPad Software, La Jolla, California, USA). The goodness of fit for enzyme inhibition models was compared using the extra sum‐of‐squares F test and the AICc approach.

For test [2], the target named is AChE (Homo sapiens, UniProt P22303). It counts as biochemical. Conditions: Lineweaver-Burk; for Ki: mean ± standard error, read-out: K I AChE. Here is the method: as §1, §2
Sequence of AChE (P22303 32-614): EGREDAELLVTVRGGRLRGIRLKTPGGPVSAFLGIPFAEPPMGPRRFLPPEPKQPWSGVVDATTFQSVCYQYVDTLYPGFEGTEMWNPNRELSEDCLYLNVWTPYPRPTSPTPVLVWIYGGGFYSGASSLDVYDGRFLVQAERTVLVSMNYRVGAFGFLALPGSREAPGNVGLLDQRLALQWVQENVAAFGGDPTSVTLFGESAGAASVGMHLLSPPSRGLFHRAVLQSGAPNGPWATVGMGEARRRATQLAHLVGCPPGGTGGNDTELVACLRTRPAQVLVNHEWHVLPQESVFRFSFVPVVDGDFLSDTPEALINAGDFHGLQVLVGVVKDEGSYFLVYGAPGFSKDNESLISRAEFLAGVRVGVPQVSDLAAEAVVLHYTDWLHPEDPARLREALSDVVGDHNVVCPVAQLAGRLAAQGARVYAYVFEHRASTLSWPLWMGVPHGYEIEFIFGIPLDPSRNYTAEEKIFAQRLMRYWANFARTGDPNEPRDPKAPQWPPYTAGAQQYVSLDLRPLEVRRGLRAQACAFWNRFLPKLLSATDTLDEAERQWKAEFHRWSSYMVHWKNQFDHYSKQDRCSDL
Test [3] concerns the target hCA II (Homo sapiens, UniProt P00918). It counts as biochemical. The settings on record: Lineweaver-Burk; for Ki: mean ± standard error, read-out: K I hCA II. The procedure: as §1, §2
The target of test [4] is hCA I (Homo sapiens, UniProt P00915). It counts as biochemical. Conditions: Lineweaver-Burk; for Ki: mean ± standard error, read-out: K I hCA I. Here is the method:
as §1, §2

Sequence of hCA I (P00915 whole entry): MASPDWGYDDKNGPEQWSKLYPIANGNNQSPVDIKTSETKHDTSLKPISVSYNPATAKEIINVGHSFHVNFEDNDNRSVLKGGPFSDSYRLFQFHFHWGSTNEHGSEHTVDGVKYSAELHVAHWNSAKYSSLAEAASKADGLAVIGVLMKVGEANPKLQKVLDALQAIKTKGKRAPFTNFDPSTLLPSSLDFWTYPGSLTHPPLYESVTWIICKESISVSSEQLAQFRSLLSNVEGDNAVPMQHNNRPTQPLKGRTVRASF

Turning to `CC1=NN(C(=O)c2ccc(C)cc2)C(=O)C1/N=N/c1ccc(S(N)(=O)=O)cc1` (stereo not drawn) [1d, 4‐([3‐Methyl‐1‐(4‐Methylbenzoyl)‐5‐Oxo‐4,5‐Dihydro‐1H‐Pyrazol‐4‐Yl]Diazenyl) Benzenesulfonamide], the Ki in test [1] turned out to be 64.6 ± 7.59 nM; in test [2] it was 16 ± 1.6 nM; in test [3], 42.6 ± 2.92 nM; in test [4], 65.1 ± 3 nM.
Consider `CC1=NN(C(=O)c2cccc(Cl)c2)C(=O)C1/N=N/c1ccc(S(N)(=O)=O)cc1` (stereo not drawn) [1f, 4‐([1‐(3‐Chlorobenzoyl)‐3‐Methyl‐5‐Oxo‐4,5‐Dihydro‐1H‐Pyrazol‐4‐Yl]Diazenyl) Benzenesulfonamide], for which the Ki in test [1] turned out to be 58.2 ± 8.11 nM; in test [2], 7.45 ± 0.98 nM; in test [3] it was 62.2 ± 4.19 nM; in test [4], 66.8 ± 5.15 nM. Moreover, the “inhibition type AChE” value in test [2] is recorded as “competitive”.
For the compound `CC1=NN(C(=O)c2ccc(C)cc2)C(=O)C1N=Nc1cccc(S(N)(=O)=O)c1` (stereo not drawn) [2d, 3‐([3‐Methyl‐1‐(4‐Methylbenzoyl)‐5‐Oxo‐4,5‐Dihydro‐1H‐Pyrazol‐4‐Yl]Diazenyl) Benzenesulfonamide], the Ki in test [1] was determined as 88.6 ± 12.9 nM; in test [2] it was 15.8 ± 1.04 nM; in test [3] it was 36.2 ± 2.78 nM; in test [4], 18 ± 2.86 nM. Besides, in test [4], the “inhibition type hCA I” value is reported as “competitive”.
For the compound `COc1ccc(C(=O)N2N=C(C)C(N=Nc3ccc(S(N)(=O)=O)cc3)C2=O)cc1` (stereo not drawn) [1e, 4‐([1‐(4‐Methoxybenzoyl)‐3‐Methyl‐5‐Oxo‐4,5‐Dihydro‐1H‐Pyrazol‐4‐Yl]Diazenyl) Benzenesulfonamide], the Ki came out at 80.9 ± 9.41 nM in test [1], 14 ± 1.49 nM in test [2], 63.7 ± 6.71 nM in test [3] and 75.5 ± 4.91 nM in test [4]. The “inhibition type hCA II” value in test [3] is “competitive”. In addition, the “inhibition type hCA I” value in test [4] is “non‐competitive”.
Take `CC1=NN(C(=O)c2ccccc2)C(=O)C1/N=N/c1ccc(S(N)(=O)=O)cc1` (stereo not drawn) [1a, 4‐[(1‐Benzoyl‐3‐Methyl‐5‐Oxo‐4,5‐Dihydro‐1H‐Pyrazol‐4‐Yl)diazinyl] Benzenesulfonamide]: the Ki in test [1] stood at 95.5 ± 5.78 nM; in test [2], 11.2 ± 1.15 nM; in test [3], 65.5 ± 5.42 nM; in test [4] it was 53.9 ± 5.03 nM.
`CC1=NN(C(=O)c2ccc(Br)cc2)C(=O)C1/N=N/c1cccc(S(N)(=O)=O)c1` (stereo not drawn) [2c, 3‐([1‐(4‐Bromobenzoyl)‐3‐Methyl‐5‐Oxo‐4,5‐Dihydro‐1H‐Pyrazol‐4‐Yl]Diazenyl) Benzenesulfonamide]: the Ki was found to be 96 ± 5.44 nM in test [1], 8.43 ± 1.42 nM in test [2], 28.8 ± 2.51 nM in test [3] and 44.6 ± 2.84 nM in test [4].
In the case of `CC1=NN(C(=O)c2ccc(Br)cc2)C(=O)C1N=Nc1ccc(S(N)(=O)=O)cc1` (stereo not drawn) [1c, 4‐([1‐(4‐Bromobenzoyl)‐3‐Methyl‐5‐Oxo‐4,5‐Dihydro‐1H‐Pyrazol‐4‐Yl]Diazenyl) Benzenesulfonamide], the Ki in test [1] came out at 34.8 ± 5.88 nM; in test [2], 9.47 ± 1.23 nM; in test [3] it was 85.4 ± 6.6 nM; in test [4], 49.2 ± 4.27 nM. Moreover, in test [3], the “inhibition type hCA II” value is “non‐competitive”.
`CC1=NN(C(=O)c2cccc(Cl)c2)C(=O)C1/N=N/c1cccc(S(N)(=O)=O)c1` (stereo not drawn) [2f, 3‐([1‐(3‐Chlorobenzoyl)‐3‐Methyl‐5‐Oxo‐4,5‐Dihydro‐1H‐Pyrazol‐4‐Yl]Diazenyl) Benzenesulfonamide]: the Ki is 136 ± 17.4 nM in test [1], 9.52 ± 0.86 nM in test [2], 33.3 ± 4.09 nM in test [3] and 37.7 ± 2.06 nM in test [4].
For `CC1=NN(C(=O)c2ccccc2)C(=O)C1/N=N/c1cccc(S(N)(=O)=O)c1` (stereo not drawn) [2a, 3‐[(1‐Benzoyl‐3‐Methyl‐5‐Oxo‐4,5‐Dihydro‐1H‐Pyrazol‐4‐Yl)diazinyl] Benzenesulfonamide], the Ki stood at 98.3 ± 7.34 nM in test [1], 10.5 ± 0.9 nM in test [2], 55.7 ± 4.14 nM in test [3] and 73.2 ± 7.17 nM in test [4].
In the same order, the values of `CC1=NN(C(=O)c2ccc(Cl)cc2)C(=O)C1/N=N/c1ccc(S(N)(=O)=O)cc1` (stereo not drawn) [1b, 4‐([1‐(4‐Chlorobenzoyl)‐3‐Methyl‐5‐Oxo‐4,5‐Dihydro‐1H‐Pyrazol‐4‐Yl]Diazenyl) Benzenesulfonamide] are 73.3 ± 12.2 nM, 13.3 ± 1.43 nM, 50.8 ± 3.36 nM and 55.9 ± 3.29 nM.
Regarding `COc1ccc(C(=O)N2N=C(C)C(/N=N/c3cccc(S(N)(=O)=O)c3)C2=O)cc1` (stereo not drawn) [2e, 3‐([1‐(4‐Methoxybenzoyl)‐3‐Methyl‐5‐Oxo‐4,5‐Dihydro‐1H‐Pyrazol‐4‐Yl]Diazenyl) Benzenesulfonamide], the Ki in test [1] was found to be 93.8 ± 10.5 nM; in test [2], 13.5 ± 0.91 nM; in test [3], 35.4 ± 1.94 nM; in test [4], 49 ± 6.25 nM.
For the compound `CC1=NN(C(=O)c2ccc(Cl)cc2)C(=O)C1/N=N/c1cccc(S(N)(=O)=O)c1` (stereo not drawn) [2b, 3‐([1‐(4‐Chlorobenzoyl)‐3‐Methyl‐5‐Oxo‐4,5‐Dihydro‐1H‐Pyrazol‐4‐Yl]Diazenyl) Benzenesulfonamide], the Ki in test [1] is 76.4 ± 11.6 nM; in test [2], 8.66 ± 0.93 nM; in test [3], 24.8 ± 1.57 nM; in test [4], 37.1 ± 2.43 nM. Moreover, the “inhibition type hCA II” value in test [3] is reported as “non‐competitive”.
